Experimental data reported in patent US8846601B2, “Melanocortin receptor-specific peptides” (Palatin Technologies, Inc., priority 2009, dated 2014).
Peptide text beside a SMILES is read from it.

Target: hMC4-R (Homo sapiens (Human), UniProt P32245)
Assay: Competitive inhibition binding assay using [I125]-NDP-α-MSH, hMC4-R membranes
Details: averaged; [I125]-NDP-α-MSH (values not marked *); read-out: MC4-R Ki
Method: A competitive inhibition binding assay is performed using membrane homogenates prepared from HEK-293 cells that express recombinant hMC4-R, hMC3-R, or hMC5-R, and from B-16 mouse melanoma cells (containing endogenous MC1-R). In some instances, HEK-293 cells that express recombinant hMC1-R were employed. In the examples that follow, all MC3-R, MC4-R and MC5-R values are for human recombinant receptors. […] Membrane homogenates were incubated with 0.2 nM (for hMC4-R) 0.4 nM (for MC3-R and MC5-R) or 0.1 nM (for mouse B16 MC1-R or hMC1-R) [I^125]-NDP-α-MSH (Perkin Elmer) and increasing concentrations of test peptides of the present invention in buffer containing 25 mM HEPES buffer (pH 7.5) with 100 mM NaCl, 2 mM CaCl2, 2 mM MgCl2, 0.3 mM 1,10-phenanthroline, and 0.2% bovine serum albumin. After incubation for 60 minutes at 37° C., the assay mixture was filtered and the membranes washed three times with ice-cold buffer. Filters were dried and counted in a gamma counter for bound radioactivity. […] Maximal specific binding (100%) was defined as the difference in radioactivity (cpm) bound to cell membranes in the absence and presence of 1 μM NDP-α-MSH. […] Each assay was conducted in triplicate and the actual mean values are described, with results less than 0% reported as 0%. Ki values for test peptides of the present invention were determined using Graph-Pad Prism® curve-fitting software.

Chain of hMC4-R (P32245 whole entry): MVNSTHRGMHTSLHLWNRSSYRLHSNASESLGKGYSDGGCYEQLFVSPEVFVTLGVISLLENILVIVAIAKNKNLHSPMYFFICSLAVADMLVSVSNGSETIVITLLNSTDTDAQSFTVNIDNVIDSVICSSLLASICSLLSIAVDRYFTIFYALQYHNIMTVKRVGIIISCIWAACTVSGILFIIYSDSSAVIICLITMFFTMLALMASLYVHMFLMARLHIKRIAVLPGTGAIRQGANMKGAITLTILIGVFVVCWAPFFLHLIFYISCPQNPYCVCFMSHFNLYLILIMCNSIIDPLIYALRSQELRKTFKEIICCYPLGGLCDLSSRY

SMILES | Ki
CC(=O)N[C@@H](CCCNC(=N)N)C(=O)N[C@H]1CC(=O)NCCCC[C@@H](C(=O)O)NC(=O)[C@H](Cc2c[nH]c3ccccc23)NC(=O)[C@H](CCCNC(=N)N)NC(=O)[C@@H](Cc2ccccc2)NC(=O)[C@H](CCCN)NC1=O [compound 58, Ac-Arg-cyclo(Asp-Orn- D-Phe-Arg-Trp-Lys)-OH] | 23 nM
CC(=O)N[C@@H](CCCNC(=N)N)C(=O)N[C@H]1CCC(=O)NCCC[C@@H](C(=O)O)NC(=O)[C@H](Cc2c[nH]c3ccccc23)NC(=O)[C@H](CCCNC(=N)N)NC(=O)[C@@H](Cc2ccccc2)NC(=O)[C@H](Cc2c[nH]cn2)NC1=O [compound 82, Ac-Arg-cyclo(Glu-His- D-Phe-Arg-Trp-Orn)- OH] (HELM PEPTIDE1{[ac].R.E.H.[dF].R.W.[Orn]}$PEPTIDE1,PEPTIDE1,3:R3-8:R3$$$V2.0) | 4 nM
CC(=O)N[C@@H](CCCNC(=N)N)C(=O)N[C@H]1CCCCNC(=O)C[C@@H](C(N)=O)NC(=O)[C@H](Cc2c[nH]c3ccccc23)NC(=O)[C@H](CCCNC(=N)N)NC(=O)[C@@H](Cc2ccccc2)NC(=O)[C@H](CCN)NC1=O [compound 121, Ac-Arg-cyclo(Lys-Dab- D-Phe-Arg-Trp-Asp)- NH2] (HELM PEPTIDE1{[ac].R.K.[Dab].[dF].R.W.D.[am]}$PEPTIDE1,PEPTIDE1,3:R3-8:R3$$$V2.0) | 0.4 nM
CC(=O)N[C@@H](CCCNC(=N)N)C(=O)N[C@H]1CCC(=O)NCCC[C@@H](C(=O)O)NC(=O)[C@H](Cc2c[nH]c3ccccc23)NC(=O)[C@H](CCCNC(=N)N)NC(=O)[C@@H](Cc2ccccc2)NC(=O)[C@H](CCCN)NC1=O [compound 90, Ac-Arg-cyclo(Glu-Orn- D-Phe-Arg-Trp-Orn)- OH] | 9 nM
CC(=O)N[C@@H](CCCNC(=N)N)C(=O)N[C@H]1CC(=O)NCCCC[C@@H](C(N)=O)NC(=O)[C@H](Cc2c[nH]c3ccccc23)NC(=O)[C@H](CCCNC(=N)N)NC(=O)[C@@H](Cc2ccccc2)NC(=O)CN(C)C1=O [compound 63, Ac-Arg-cyclo(Asp-Sar- D-Phe-Arg-Trp-Lys)- NH2] | 15 nM
CC(=O)N[C@@H](CCCNC(=N)N)C(=O)N[C@H]1CC(=O)NCCCC[C@@H](C(N)=O)NC(=O)[C@H](Cc2c[nH]c3ccccc23)NC(=O)[C@H](CCCNC(=N)N)NC(=O)[C@@H](Cc2ccccc2)NC(=O)[C@H](Cc2ccc(C(N)=O)cc2)NC1=O [compound 50, Ac-Arg-cyclo(Asp- Phe(4-(C(═O)—NH2))-D- Phe-Arg-Trp-Lys)-NH2] | 30 nM
CC(=O)N[C@@H](CCCNC(=N)N)C(=O)N[C@H]1CC(=O)NCCCC[C@@H](C(N)=O)NC(=O)[C@H](Cc2c[nH]c3ccccc23)NC(=O)[C@H](CCCNC(=N)N)NC(=O)[C@@H](Cc2ccccc2)NC(=O)[C@H](CCC(N)=O)NC1=O [compound 57, Ac-Arg-cyclo(Asp-Gln- D-Phe-Arg-Trp-Lys)-OH] | 115 nM
CC(=O)N[C@@H](CCCNC(=N)N)C(=O)N[C@H]1CC(=O)NCCCC[C@@H](C(N)=O)NC(=O)[C@H](Cc2c[nH]c3ccccc23)NC(=O)[C@H](CCCNC(=N)N)NC(=O)[C@@H](Cc2ccccc2)NC(=O)[C@H](CO)NC1=O [Peptide No. 3, Ac-Arg-cyclo(Asp-Ser- D-Phe-Arg-Trp-Lys)- NH2] | 172 nM
CC(=O)N[C@@H](CCCNC(=N)N)C(=O)N[C@H]1CCC(=O)NCCC[C@@H](C(N)=O)NC(=O)[C@H](Cc2c[nH]c3ccccc23)NC(=O)[C@H](CCCNC(=N)N)NC(=O)[C@@H](Cc2ccccc2)NC(=O)[C@H](CC[S+](C)[O-])NC1=O (stereo partly drawn) [compound 111, Ac-Arg-cyclo(Glu- Met(═O)-D-Phe-Arg- Trp-Orn)-NH2] | 9 nM
CC(=O)N[C@@H](CCCNC(=N)N)C(=O)N[C@H]1CCCNC(=O)CC[C@@H](C(N)=O)NC(=O)[C@H](Cc2c[nH]c3ccccc23)NC(=O)[C@H](CCCNC(=N)N)NC(=O)[C@@H](Cc2ccccc2)NC(=O)[C@H](Cc2c[nH]cn2)NC1=O [compound 75, Ac-Arg-cyclo(Orn-His- D-Phe-Arg-Trp-Glu)- NH2] (HELM PEPTIDE1{[ac].R.[Orn].H.[dF].R.W.E.[am]}$PEPTIDE1,PEPTIDE1,3:R3-8:R3$$$V2.0) | 0.6 nM
CC(=O)N[C@@H](CCCNC(=N)N)C(=O)N[C@H]1CC(=O)NCCCC[C@@H](C(N)=O)NC(=O)[C@H](Cc2c[nH]c3ccccc23)NC(=O)[C@H](CCCNC(=N)N)NC(=O)[C@@H](Cc2ccccc2)NC(=O)[C@H](Cc2cccc(C(N)=O)c2)NC1=O [compound 49, Ac-Arg-cyclo(Asp-Phe- (3-(C(═O)—NH2))-D-Phe- Arg-Trp-Lys)-NH2] | 15 nM
CC(=O)N[C@@H](CCCNC(=N)N)C(=O)N[C@H]1CC(=O)NCCCC[C@@H](C(=O)O)NC(=O)[C@H](Cc2c[nH]c3ccccc23)NC(=O)[C@H](CCCNC(=N)N)NC(=O)[C@@H](Cc2ccccc2)NC(=O)[C@@H]2C[C@@H](OCc3ccccc3)CN2C1=O [compound 54, Ac-Arg-cyclo(Asp- Hyp(Bzl)-D-Phe-Arg- Trp-Lys)-OH] | 3 nM

Now from value to molecule:

Ki | SMILES
4 nM | CC(=O)N[C@@H](CCCNC(=N)N)C(=O)N[C@H]1CCCC(=O)NCC[C@@H](C(N)=O)NC(=O)[C@H](Cc2c[nH]c3ccccc23)NC(=O)[C@H](CCCNC(=N)N)NC(=O)[C@@H](Cc2ccccc2)NC(=O)[C@H](CCS(C)(=O)=O)NC1=O [compound 145, Ac-Arg-cyclo(hGlu- Met(O2)-D-Phe-Arg- Trp-Dab)-NH2] (HELM PEPTIDE1{[ac].R.[O=C([C@H](CCCC(=O)[*:3])N[*:1])[*:2]].[CS(=O)(=O)CC[C@H](N[*:1])C(=O)[*:2]].[dF].R.W.[Dab].[am]}$PEPTIDE1,PEPTIDE1,3:R3-8:R3$$$V2.0)
20 nM | CC(=O)N[C@@H](CCCNC(=N)N)C(=O)N[C@H]1CCCC(=O)NCC[C@@H](C(N)=O)NC(=O)[C@H](Cc2c[nH]c3ccccc23)NC(=O)[C@H](CCCNC(=N)N)NC(=O)[C@@H](Cc2ccccc2)NC(=O)[C@H](CCC(N)=O)NC1=O [compound 147, Ac-Arg-cyclo(hGlu-Gln- D-Phe-Arg-Trp-Dab)- NH2]
9 nM | CC(=O)N[C@@H](CCCNC(N)=O)C(=O)N[C@H]1CC(=O)NCCCC[C@@H](C(N)=O)NC(=O)[C@H](Cc2c[nH]c3ccccc23)NC(=O)[C@H](CCCNC(=N)N)NC(=O)[C@@H](Cc2ccccc2)NC(=O)[C@H](CCN)NC1=O [compound 141, Ac-Cit-cyclo(Asp-Dab- D-Phe-Arg-Trp-Lys)- NH2]
365 nM | CCCCC(=O)N[C@H]1CCC(=O)NCC[C@@H](C(=O)N[C@@H](Cc2c[nH]c3ccccc23)C(N)=O)NC(=O)[C@H](CCCNC(=N)N)NC(=O)[C@@H](Cc2ccccc2)NC(=O)[C@H](Cc2c[nH]cn2)NC1=O [compound 153, n-C4H9—CO-cyclo(Glu- His-D-Phe-Arg-Dab)- Trp-NH2]
3 nM | CC(=O)N[C@@H](CCCNC(=N)N)C(=O)N[C@H]1CC(=O)NCCCC[C@@H](C(=O)NC2CC2)NC(=O)[C@H](Cc2c[nH]c3ccccc23)NC(=O)[C@H](CCCNC(=N)N)NC(=O)[C@@H](Cc2ccccc2)NC(=O)[C@H](CCN)NC1=O [compound 122, Ac-Arg-cyclo(Asp-Dab- D-Phe-Arg-Trp-Lys)- NH-cyclopropyl]
35 nM | CC(=O)N[C@@H](CCCNC(=N)N)C(=O)N[C@H]1CCNC(=O)CCC[C@@H](C(=O)O)NC(=O)[C@H](Cc2c[nH]c3ccccc23)NC(=O)[C@H](CCCNC(=N)N)NC(=O)[C@@H](Cc2ccccc2)NC(=O)[C@H](CCN)NC1=O [compound 136, Ac-Arg-cyclo(Dab-Dab- D-Phe-Arg-Trp-hGlu)- OH]
